In publication PMC3093405, “A Motif Unique to the Human Dead-Box Protein DDX3 Is Important for Nucleic Acid Binding, ATP Hydrolysis, RNA/DNA Unwinding and HIV-1 Replication” (PLoS ONE, 2011):
Ends that are not written are not given here.

How the values were obtained:
[1] = ATPase activity assay ([γ-32P]ATP hydrolysis, TLC), steady-state kinetics; type: biochemical
Description: (§1) The ATPase activity was determined, as previously described, by directly monitoring [γ-^32P] ATP hydrolysis by thin-layer chromatography (TLC). ATP (3000 Ci/mmol) as tracer, plus 1 mM of cold ATP, unless otherwise stated, and nucleic acids as indicated. Samples were incubated for 5 minutes at 25°C and dotted onto TLC sheets of polyethylenimine cellulose. The products were separated by ascending chromatography with 0.5 M KH2PO4 (pH 3.4). The intensities of the radioactive bands corresponding to ATP and Pi were quantified by densitometric scanning with PhosphoImager. For the stimulation of the ATPase activity, the ssDNA oligonucleotide oligo(dT)20 or the ssRNA oligonucleotide oligo (rU)20 were used. Time-course experiments were performed under the conditions described above. Samples were taken at different time points and processed as described above.
ATPase reactions were performed as described, in the presence of increasing amounts of nucleic acids and variable ATP concentrations. […] The relative -fold increase in the ATPase velocities 1−(vDNA/v) as a function of the nucleic acid concentrations was fitted to the hyperbolic relationship: [drawing 2] (2) where vNA is the apparent velocity of the reaction in the presence of nucleic acid, v is the velocity in its absence, KD is the apparent affinity for the nucleic acid and [NA] is the concentration of the nucleic acid substrate. The symbol KD is used, instead of Km, solely to reflect the fact that the NA is not a reactant (i.e. it is not converted into products) but only a cofactor of the reaction, without implying any assumption on the nature of the microscopic rates contributing to the KD value itself.

[2] = ATPase time-course (burst kinetics); type: biochemical
Description: as §1
Variation of the ATPase reaction as a function of time was fitted to the mixed-exponential equation: [drawing 3] (3) where [P] is the concentration of products (pmols) at any given time point, t is time, Aburst is the burst amplitude, k burst is the rate of the exponential phase, k ss is the rate of the steady-state linear phase.

[3] = system: 18/36mer ds RNA oligonucleotide; experiment: RNA helicase assay; type: biochemical
Text: (§2) The helicase activity of DDX3wt and mutant forms was monitored by measuring the conversion of a double stranded (ds) DNA or RNA (labelled at the 5′-end of one strand with a 6-FAM fluorescent group) into single stranded (ss) nucleic acid. For the RNA helicase assay, a 18/36mer ds RNA oligonucleotide with both 3′ and 5′-protruding ss ends was used. For the DNA helicase assay, three different dsDNA substrates were used, all of them composed of the same 18mer oligonucleotide 5′-FAM labelled and three different 38 mer oligonucleotides with the sequence complementary to the 18 mer at different positions. Annealing of the 18 mer to each of the 38 mer generated the different DNA substrates shown in Fig. 5 A. A final concentration of 20 nM RNA or DNA substrate was used in the experiments, unless otherwise stated. The amounts of the different DDX3 proteins are indicated in the respective Figures.
(§3) Reactions were performed in 50 mM TrisHCl pH 7.5, 1 mM DTT, 0.2 mg/ml BSA, 5% glycerol and 1 mM ATP, 10 mM MgCl2 at 37°C degrees for 10′ and stopped by adding EDTA 50 mM pH 8. Products were separated on a native 7% PAGE […] at 5 W in TBE buffer with 0.1% SDS at 4°C for 2 hours for RNA substrates, 4 hours for DNA substrates. Substrates and products were quantified by laser scanning densitometry (Thyphoon-TRIO, GE Healthcare). For trap-assays, the enzyme and the RNA substrate were incubated on ice for 4 min, in the absence of ATP. Reactions were started by addition of ATP and a 50-fold molar excess (1 µM) of r(A)40 trap RNA oligonucleotide, followed by incubation at 37°C for the indicated times.
Variation of the amount of unwound RNA substrate as a function of time was fitted to a simple exponential equation: [drawing 4] (4) where MAX is the amount of unwound substrate extrapolated at infinite time, kuw is the apparent rate of unwinding.

[4] = system: partially dsDNA substrates (18/38-mer); experiment: DNA helicase assay; type: biochemical
Text: as §2, §3

DDX3wt = molecular target: T1, DDX3wt (Homo sapiens, UniProt O00571); experiment: Inhibition of DDX3wt ATPase activity; type: biochemical; details: increasing amounts of inhibitor
T1 construct: DDX3wt (aa 1–662), and the N-DDX3 (aa 1–427); N-terminal peptide of ~3 kDa comprising 6xHis (pTrcHisA) (N); seven additional amino acids KQGCFGG (C); made in house; host or cells: E. coli BL-21
T1 sequence (O00571 whole entry, the tested form may be a part): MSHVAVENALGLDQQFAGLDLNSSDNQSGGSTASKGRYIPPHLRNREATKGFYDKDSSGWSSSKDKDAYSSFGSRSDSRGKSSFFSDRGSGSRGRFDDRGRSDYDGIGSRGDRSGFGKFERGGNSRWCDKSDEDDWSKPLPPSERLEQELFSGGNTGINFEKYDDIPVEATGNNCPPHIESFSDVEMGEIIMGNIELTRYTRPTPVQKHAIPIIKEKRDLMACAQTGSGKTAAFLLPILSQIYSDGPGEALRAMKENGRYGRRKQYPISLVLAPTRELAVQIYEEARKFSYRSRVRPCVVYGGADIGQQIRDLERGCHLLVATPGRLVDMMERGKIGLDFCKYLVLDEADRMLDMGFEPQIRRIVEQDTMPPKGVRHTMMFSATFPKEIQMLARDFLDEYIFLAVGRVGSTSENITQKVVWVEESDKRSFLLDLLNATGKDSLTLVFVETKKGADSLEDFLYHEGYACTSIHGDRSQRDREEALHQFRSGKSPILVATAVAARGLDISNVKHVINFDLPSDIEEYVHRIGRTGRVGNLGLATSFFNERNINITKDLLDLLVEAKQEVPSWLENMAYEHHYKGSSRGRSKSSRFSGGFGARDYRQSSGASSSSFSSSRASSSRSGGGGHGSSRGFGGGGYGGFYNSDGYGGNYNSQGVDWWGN
Description: as §1

N-DDX3 = molecular target: T2, N-DDX3 (Homo sapiens, UniProt O00571); experiment: Inhibition of N-DDX3 ATPase activity; type: biochemical; details: increasing amounts of inhibitor
T2 construct: The N-DDX3 mutant (aa 1–427) was obtained using the forward primer; N-terminal peptide of ~3 kDa comprising 6xHis (pTrcHisA) (N); seven additional amino acids KQGCFGG (C); made in house; host or cells: E. coli BL-21
T2 sequence (O00571 1-427): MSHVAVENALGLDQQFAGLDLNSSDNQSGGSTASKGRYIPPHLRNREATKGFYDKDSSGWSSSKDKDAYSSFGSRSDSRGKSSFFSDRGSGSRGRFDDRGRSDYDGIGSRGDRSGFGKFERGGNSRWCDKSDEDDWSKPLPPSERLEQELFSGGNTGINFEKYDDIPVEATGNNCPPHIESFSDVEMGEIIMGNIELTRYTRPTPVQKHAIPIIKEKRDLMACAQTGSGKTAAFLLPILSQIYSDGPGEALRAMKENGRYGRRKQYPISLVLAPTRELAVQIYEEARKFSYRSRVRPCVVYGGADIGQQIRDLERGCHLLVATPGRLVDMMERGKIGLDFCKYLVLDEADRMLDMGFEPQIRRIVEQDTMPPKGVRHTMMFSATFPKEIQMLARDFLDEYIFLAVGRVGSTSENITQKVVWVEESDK
Description: as §1

HelaP4 cells = type: cell-based
Description: We therefore analyzed this peptide further, with respect to functional interference with HIV-1 replication. After fusion to a protein transduction domain, different amounts of the DDX3-INS1 peptide or a control peptide were transduced into HelaP4 cells 24 hours after infection with HIV-1Lai. HIV-1 infection was quantified 48–72 hours after infection by titering released HIV-1 in culture supernatants on Tzm-bl cells based on measuring the luciferase activity in the cell lysates. […] The DDX3-INS1 peptide was not toxic for the cells in the concentration range used (data not shown). Thus, binding of the peptide ligand to the DDX3 insertion, interferes with HIV-1 replication further providing evidence of an important functional role of the DDX3 insertion not only for enzymatic functions, but also for HIV-1 replication.

[5] = relative to absence of nucleic acid

## DDX3wt: recombinant full length human DDX3 (aa 1–662), N-terminal his-tagged, expressed in E. coli
[1]; +DNA, oligo(dT)20
  k cat: 0.0633 ± 0.0033 s⁻¹
[1]; +RNA, oligo(rU)20
  k cat: 0.0533 ± 0.0017 s⁻¹
[1]; absence of nucleic acid
  Intrinsic ability to hydrolyze ATP: detectable ATPase activity
[1]; absence of nucleic acids
  k cat: 0.0267 ± 0.0033 s⁻¹
[1]; [5]
  Increase of catalytic efficiency (kcat/Km) by DNA: 3.2 fold
  Increase of catalytic efficiency (kcat/Km) by RNA: 2.8 fold
[2]; +DNA, oligo(dT)20
  Aburst: 0.9 ± 0.1 µM
  k burst: 9.5 ± 0.8 min⁻¹
  k ss: 0.4 ± 0.03 min⁻¹
[2]; +RNA, oligo(rU)20
  Aburst: 0.75 ± 0.1 µM
  k burst: 7 ± 0.8 min⁻¹
  k ss: 0.4 ± 0.09 min⁻¹
[2]; absence of nucleic acids
  Aburst: 0.25 ± 0.05 µM
  k burst: 4.1 ± 0.7 min⁻¹
  k ss: 0.3 ± 0.08 min⁻¹
[3]
  Reduction of RNA unwinding rate by addition of the trap: about 2 fold
[3]; +trap, 50-fold molar excess r(A)40 ssRNA, single-turnover
  k uw (apparent rate of RNA unwinding): 0.05 ± 0.01 min⁻¹
[3]; without trap
  k uw (apparent rate of RNA unwinding): 0.11 ± 0.02 min⁻¹
[4]; DNA duplex with a single 5′-protruding end, 18/[5′]-38 mer
  DNA unwinding: able to unwind
[4]; DNA duplex with both 5′- and 3′-protruding ssDNA ends, 18/[5′-3′]-38 mer
  DNA unwinding: able to unwind
[4]; substrate with a 3′-ss DNA region, 18/[3′]-38 mer
  DNA unwinding: not

## O=C(CN1C(=O)/C(=C/c2cccc(Br)c2)SC1=S)Nc1ccccc1O [FE15]
DDX3wt
  Inhibition of ATP hydrolysis: inhibited
N-DDX3
  Inhibition of ATP hydrolysis: inhibited

## SDVPTQVGGRRRRRRRRR [DDX3-INS1]
HelaP4 cells
  Toxicity for the cells: not toxic
